The text below walks through data of patent publication US11555036B2, “FGFR4 inhibitor, preparation method therefor and pharmaceutical use thereof” (Abbisko Therapeutics Co., Ltd., priority 2016, dated 2023).

One assay has as its target FGFR4 (Homo sapiens, UniProt P22455). Nature of the assay: FGFR4 Caliper Assay (in vitro biochemical kinase analysis of FGFR4). The conditions noted are these: read-out: Enzymatic activity FGFR4 IC50. The essentials: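 Kinase reaction at 30° C for 40 min in 50 mM HEPES pH 7.5, 16 mM MgCl2, 1 mM DTT, 0.6% DMSO, stopped with EDTA. Phosphorylated and unphosphorylated fluorescent peptides separated by Caliper microfluidic mobility shift. IC50 by non-linear regression of percent inhibition.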

In assay [1] the test system is Huh7 hepatocellular carcinoma cells. Description: FGFR4 cell proliferation experiment, Cell Titer Glo (CTG). The conditions noted are these: HuH-7 cells, 3 days; for IC50: concentration leading to absolute half growth inhibition; for EC50: concentration leading to half maximal growth inhibition. The assay is classed as cell-based. Summed up:
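Cells treated with 5-fold serial dilutions starting at 10 μM for 3 days at 37° C, 5% CO2. Proliferation/survival quantified as cellular ATP by CellTiter-Glo luminescence.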

Sequence of FGFR4 (P22455 22-802): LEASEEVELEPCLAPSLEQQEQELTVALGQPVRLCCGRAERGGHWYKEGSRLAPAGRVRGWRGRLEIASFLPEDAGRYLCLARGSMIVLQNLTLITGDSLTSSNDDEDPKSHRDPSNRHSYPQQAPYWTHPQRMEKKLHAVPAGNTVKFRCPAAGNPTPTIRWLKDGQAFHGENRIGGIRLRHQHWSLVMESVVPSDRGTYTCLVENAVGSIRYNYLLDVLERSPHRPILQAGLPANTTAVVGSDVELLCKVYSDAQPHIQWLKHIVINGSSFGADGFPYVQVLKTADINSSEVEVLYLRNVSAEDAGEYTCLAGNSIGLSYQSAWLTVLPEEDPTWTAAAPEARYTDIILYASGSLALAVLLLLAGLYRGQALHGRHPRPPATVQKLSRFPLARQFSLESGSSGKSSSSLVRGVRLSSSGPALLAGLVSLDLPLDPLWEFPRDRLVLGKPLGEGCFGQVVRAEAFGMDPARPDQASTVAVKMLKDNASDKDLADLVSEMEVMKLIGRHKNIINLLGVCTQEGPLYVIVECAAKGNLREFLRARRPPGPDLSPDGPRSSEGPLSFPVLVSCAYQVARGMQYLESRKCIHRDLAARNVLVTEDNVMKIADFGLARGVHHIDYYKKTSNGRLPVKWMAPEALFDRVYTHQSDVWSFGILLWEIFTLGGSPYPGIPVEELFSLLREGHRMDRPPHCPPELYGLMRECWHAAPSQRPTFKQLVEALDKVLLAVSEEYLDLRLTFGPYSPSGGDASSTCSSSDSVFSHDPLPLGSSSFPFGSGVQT

`C=CC(=O)N[C@H]1CCOC[C@H]1Nc1ncc2cc(-c3c(F)c(OC)cc(OC)c3F)nc(N3CC(C)(O)C3)c2n1` [Example 793, N-((3S,4S)-3-((6-(2,6-difluoro-3,5-dimethoxyphenyl)-8-(3-hydroxy-3-methylazetidin-1-yl)pyrido[3,4-d]py-rimidin-2-yl)amino)tetrahydro-2H-pyran-4-yl)acrylamide]: the IC50 at FGFR4 worked out at 5.3 nM. Moreover, in assay [1] (Homo sapiens, Huh-7, 72 h), 9.9 nM corresponded to half-maximal inhibition (IC50) and the response was half-maximal at 7.9 nM (EC50).
The like results for `C=CC(=O)N[C@H]1CCOC[C@H]1Nc1ncc2cc(-c3c(F)c(OC)cc(OC)c3F)nc(N3CCC(OC)C3)c2n1` (stereo partly drawn) [Example 794, N-((3S,4S)-3-((6-(2,6-difluoro-3,5-dimethoxyphenyl)-8-(3-methoxy-pyrrolidin-1-yl)pyrido[3,4-d]py-rimidin-2-yl)amino)tetrahydro-2H-pyran-4-yl)acrylamide] were, in that order, 4.8 nM, 6.9 nM and 5.5 nM.
As to `C=CC(=O)N[C@H]1CCOC[C@H]1Nc1ncc2cc(-c3c(F)c(OC)cc(OC)c3F)nc(N3CCC(OC)CC3)c2n1` [Example 795, N-((3S,4S)-3-((6-(2,6-difluoro-3,5-dimethoxyphenyl)-8-(4-methoxy-piperidin-1-yl)pyrido[3,4-d]pyrimidin-2-yl)amino)tetrahydro-2H-pyran-4-yl)acrylamide], the IC50 was determined as 7.5 nM on FGFR4 and 11.8 nM in assay [1] (Homo sapiens, Huh-7, 72 h). The molecule also gave an EC50 in assay [1] (Homo sapiens, Huh-7, 72 h) of 9.5 nM.
As for `C=CC(=O)N[C@H]1CCOC[C@H]1Nc1ncc2cc(-c3c(F)c(OC)cc(OC)c3F)nc(N3CC4CC(C3)O4)c2n1` [Example 796, N-((3S,4S)-3-((8-(6-oxa-3-aza-bicyclo[3.1.1]heptan-3-yl)-6-(2,6-difluoro-3,5-dimethoxyphenyl)py-rido[3,4-d]pyrimidin-2-yl)a-mino)tetrahydro-2H-pyran-4-yl)acrylamide], the IC50 on FGFR4 is 23 nM. Besides, in assay [1] (Homo sapiens, Huh-7, 72 h), inhibition was half-maximal at 47.8 nM (IC50) and a half-maximal response (EC50) required 38 nM.
Turning to “N-((3S,4S)-3-((6-(2,6-dichloro-3,5-di- methoxyphenyl)-8-(methylamino)py- rido[3,4-d]pyrimidin-2-yl)amino)tetra- hydro-2H-pyran-4-yl)acrylamide [Example 510]”, the IC50 on FGFR4 was determined as 29 nM. Also, in assay [1], it took 116 nM to reach half-maximal inhibition (IC50) and the EC50 amounted to 75.2 nM.
